MIC data for four molecules are collected here from ChEMBL document CHEMBL1141411, “Structural characterization of daptomycin analogues A21978C1-3(d-Asn11) produced by a recombinant Streptomyces roseosporus strain” (2007).

In brackets after ≈: the same amount, converted by molar mass.

This experiment has as its system Staphylococcus aureus. Description: Antibacterial activity against Staphylococcus aureus 42 by broth microdilution method. It is filed as functional.
In the case of `CCC(C)CCCCCCCCC(=O)N[C@@H](Cc1c[nH]c2ccccc12)C(=O)N[C@H](CC(N)=O)C(=O)N[C@@H](CC(=O)O)C(=O)N[C@@H]1C(=O)NCC(=O)N[C@@H](CCCN)C(=O)N[C@@H](CC(=O)O)C(=O)N[C@H](C)C(=O)N[C@@H](CC(=O)O)C(=O)NCC(=O)N[C@H](CC(N)=O)C(=O)N[C@@H]([C@H](C)CC(=O)O)C(=O)N[C@@H](CC(=O)c2ccccc2N)C(=O)O[C@@H]1C` (some centres undefined), the minimal inhibitory concentration (MIC) worked out at 0.15 µM (≈ 0.253 µg/mL).
Turning to `CC(C)CCCCCCCCC(=O)N[C@@H](Cc1c[nH]c2ccccc12)C(=O)N[C@H](CC(N)=O)C(=O)N[C@@H](CC(=O)O)C(=O)N[C@@H]1C(=O)NCC(=O)N[C@@H](CCCN)C(=O)N[C@@H](CC(=O)O)C(=O)N[C@H](C)C(=O)N[C@@H](CC(=O)O)C(=O)NCC(=O)N[C@H](CC(N)=O)C(=O)N[C@@H]([C@H](C)CC(=O)O)C(=O)N[C@@H](CC(=O)c2ccccc2N)C(=O)O[C@@H]1C`, the MIC was 0.3 µM (≈ 0.503 µg/mL).
For `CCC(C)CCCCCCC(=O)N[C@@H](Cc1c[nH]c2ccccc12)C(=O)N[C@H](CC(N)=O)C(=O)N[C@@H](CC(=O)O)C(=O)N[C@@H]1C(=O)NCC(=O)N[C@@H](CCCN)C(=O)N[C@@H](CC(=O)O)C(=O)N[C@H](C)C(=O)N[C@@H](CC(=O)O)C(=O)NCC(=O)N[C@H](CC(N)=O)C(=O)N[C@@H]([C@H](C)CC(=O)O)C(=O)N[C@@H](CC(=O)c2ccccc2N)C(=O)O[C@@H]1C` (some centres undefined), inhibition of growth (MIC) required 0.6 µM (≈ 0.997 µg/mL).
Molecule `CCCCCCCCCC(=O)N[C@@H](Cc1c[nH]c2ccccc12)C(=O)N[C@H](CC(N)=O)C(=O)N[C@@H](CC(=O)O)C(=O)N[C@@H]1C(=O)NCC(=O)N[C@@H](CCCN)C(=O)N[C@@H](CC(=O)O)C(=O)N[C@H](C)C(=O)N[C@@H](CC(=O)O)C(=O)NCC(=O)N[C@H](CO)C(=O)N[C@@H]([C@H](C)CC(=O)O)C(=O)N[C@@H](CC(=O)c2ccccc2N)C(=O)O[C@@H]1C` yielded a minimal inhibitory concentration (MIC) of 0.6 µM (≈ 0.972 µg/mL).

As a reminder, the MIC is the least concentration at which growth counts as inhibited. A high value points to a need for much substance.
